The test system of data set [1] is human EPO. The experiment in a line: Measurement of EPO enzyme activity (EPO protein in blood plasma of mice after intravenous administration of EPO mRNA lipid particles). In kind it is in vivo. Particulars: C57BL/6J mice, tail-vein i.v., mRNA 0.1 mg/kg, plasma 20 to 24 hours, lipid/nucleic acid 64 wt/wt. The method, then:
(§1) The compounds described in Table 1, the neutral lipid, cholesterol (product name: Cholesterol HP; NIPPON FINE CHEMICAL CO., LTD.), and 1,2-dimyristoyl-rac-glycero-3-(methylpolyoxyethylene 2000) (hereinafter, called DMG-PEG2000) (product name: SUNBRIGHT® GM-020; NOF corporation) were dissolved in ethanol at a molar ratio in Table 1 such that the total lipid concentration became 20 mmol/L, thereby obtaining an oil phase.
(§2) As the neutral lipid, 1,2-distearoyl-sn-glycero-3-phosphocholine (product name: COATSOME® MC-8080; NOF corporation) (hereinafter, DSPC), or L-α-dioleoyl phosphatidylethanolamine (Hereinafter, DOPE) (product name: COATSOME® ME-8181; NOF corporation), or 1,2-dioleoyl-sn-glycero-3-phosphocholine (hereinafter, DOPC) (product name: COATSOME® MC-8181; NOF corporation) was used.
(§3) EPO mRNA (product name: CleanCap EPO mRNA (5moU); TriLink) was diluted with 50 mmol/L citrate buffer having a pH 4 such that the weight ratio of total lipid concentration to mRNA concentration is about 16:1 to 64:1, thereby obtaining a water phase. Then, the water phase and the oil phase were mixed together using NanoAssemblr (Precision NanoSystems) such that the volume ratio of water phase:oil phase was 3:1, and the mixed solution was 1.5-fold diluted with phosphate buffered saline (PBS), thereby obtaining a dispersion liquid of mRNA lipid particles. The dispersion liquid was dialyzed with a 10% aqueous sucrose solution using a dialysis cassette (Slide-A-Lyzer G2, MWCO: 10 kD, Thermo Fisher Scientific) to remove ethanol, thereby obtaining EPO mRNA-encapsulating lipid particles.
The dispersion liquid of mRNA lipid particles prepared in above-described <Preparation of EPO mRNA-encapsulating lipid particles> was tail-vein intravenously administered to C57BL/6J mice at a mRNA dosage of 0.1 mg/kg. 20 to 24 hours after the administration, blood was collected from the caudal vena cava, thereby obtaining blood plasma. The human EPO enzyme activity was quantified by using the obtained blood plasma and ab119522 Erythropoietin (EPO) Human Elisa Kit (Abcam.plc). The quantitative value is described as a relative amount of EPO protein in a case where Comparative Example 1 is 1.

In data set [2] the test system is EPO mRNA. The experiment in a line: mRNA encapsulation rate of EPO mRNA-encapsulating lipid particles. The format is physicochemical. Particulars: lipid/nucleic acid 64 wt/wt. As to the method: as §1, §2, §3
(§4) 15 to 30 μL of a 3 mol/L aqueous sodium acetate solution and 4.5 to 9 μL of glycogen were added to 30 to 60 μL of the lipid particles retaining mRNA, and 0.75 to 1.5 mL of ethanol was added thereto, so that only the nucleic acids were precipitated while the lipid was dissolved. Then, the supernatant was removed by centrifugation. The precipitates were air-dried for 15 minutes or longer, then water was added thereto to redissolve the precipitates, and the concentration thereof was measured using Nanodrop NF1000 (Thermo Fisher Scientific), thereby quantifying the total mRNA concentration.
(§5) The mRNA concentration was quantified using a Quant-iT RiboGreen RNA Assay Kit (Thermo Fisher Scientific) according to the protocol. First, a 20×TE buffer included in the above-described kit was diluted with water, thereby obtaining a 1×TE buffer. TE represents Tris/EDTA (ethylenediaminetetraacetic acid). In order to quantify only mRNA in the outer water phase, the dispersion liquid of lipid particles retaining mRNA was 10,000-fold diluted with the 1×TE buffer. 100 μL of the 10,000-fold diluted dispersion liquid of lipid particles was put into a 96-well plate, then 100 μL of a RiboGreen reagent (reagent included in the Quanti-iT Ribogreen RNA Assay Kit described above) 2,000-fold diluted with the 1×TE buffer was added to a sample, and fluorescence (excitation wavelength: 485 nm, fluorescence wavelength: 535 nm) was measured using a plate reader Infinite F200 (TECAN), thereby quantifying the mRNA concentration in the outer water phase.
(§6) By using the quantification results of the total mRNA concentration and the mRNA concentration in the outer water phase that were obtained through the above steps, the mRNA encapsulation rate of the mRNA lipid particles was calculated according to the following Equation.
(§7) mRNA encapsulation rate (%)=(total mRNA concentration-mRNA concentration in outer water phase)/total mRNA concentration×100

Data set [3] has as its system FLuc mRNA. The experiment in a line: mRNA encapsulation rate of FLuc mRNA-encapsulating lipid particles. Conditions: aminolipid 45 / DOPE 10 / cholesterol 43.5 / DMG-PEG2000 1.5 mol %, lipid/nucleic acid 32 wt/wt. In kind it is physicochemical. The method, then:
(§8) The compounds described in Table 2, the neutral lipid, cholesterol (product name: Cholesterol HP; NTPPON FINE CHEMICAL CO., LTD.), and 1,2-dimyristoyl-rac-glycero-3-(methylpolyoxyethylene 2000) (hereinafter, called DMG-PEG2000) were dissolved in ethanol at a molar ratio in Table 2 such that the total lipid concentration became 20 mmol/L, thereby obtaining an oil phase.
(§9) As the neutral lipid, 1,2-distearoyl-sn-glycero-3-phosphocholine (product name: COATSOME® MC-8080; NOF corporation) was used in a case of Comparative Example 1, and L-α-dioleoylphosphatidylethanolamine (product name: COATSOME® MC-8181; NOF corporation) was used in a case other than Comparative Example 1.
as §3, with “FLuc” for “EPO”, “(5 moU);” for “(5moU);”, “19:1” for “16:1”, “64:1,” for “64:1, thereby”
as §4, §5, §6, §7

The nature of data set [4]: Particle size of FLuc mRNA-encapsulating lipid particles. In kind it is physicochemical. Particulars: aminolipid 45 / DOPE 10 / cholesterol 43.5 / DMG-PEG2000 1.5 mol %, lipid/nucleic acid 32 wt/wt. The method, then:
as §8, §9
as §3, with “FLuc” for “EPO”, “(5 moU);” for “(5moU);”, “19:1” for “16:1”, “64:1,” for “64:1, thereby”
(§10) The particle size of the mRNA-encapsulating lipid particles was measured by 10-fold diluting the dispersion liquid of lipid particle with phosphate buffered saline (PBS) using Zeta-potential & Particle size Analyzer ELS-Z2 (Otsuka Electronics Co., Ltd.).

Data set [5] is described as follows: Particle size of EPO mRNA-encapsulating lipid particles. Conditions: lipid/nucleic acid 64 wt/wt. In kind it is physicochemical. The method, then:
as §1, §2, §3, §10

Where [6] appears, read: aminolipid 50 / DOPE 10 / cholesterol 38.5 / DMG-PEG2000 1.5 mol %.
Setting [7] is: aminolipid 45 / DOPE 10 / cholesterol 43.5 / DMG-PEG2000 1.5 mol %.

As for `CCCCCC(CCCCC)COC(=O)CCCC(CCCC)OC(=O)OCCN(CCOC(=O)OC(CCCC)CCCC(=O)OCC(CCCCC)CCCCC)CCN(CC)CC` (stereo not shown) [Example 22, Bis(2-pentylheptyl) 5,17-dibutyl-11-(2-(diethylamino)ethyl)-7,15-dioxo-6,8,14,16-tetraoxa-11-azahenicosanedioate], the “Relative amount of EPO protein (with respect to Comparative Example 1)” value (from here on “Relative amount of EPO protein”) in data set [1] (setting [6]) came out at 4.69. Moreover, the results for the “Nucleic acid encapsulation rate” value in data set [2] (setting [6]) and in data set [3] were 98.6% and 98.7%, respectively. Also, the figures for the Particle size in data set [4] and in data set [5] (setting [6]) were 95 nm and 78.3 nm, respectively.

In the case of `CCCCCCOC(=O)CCCC(CCCC(=O)OCCCCCC)OC(=O)OCCN(CCOC(=O)OC(CCCC(=O)OCCCCCC)CCCC(=O)OCCCCCC)CCN(CC)CC` [Example 32, Dihexyl 11-(2-(diethylamino)ethyl)-5,17-bis(4-(hexyloxy)-4-oxobutyl)-7,15-dioxo-6,8,14,16-tetraoxa-11-azahenicosanedioate], in data set [1] (setting [6]), the “Relative amount of EPO protein” value was determined as 4.03. Further, in data set [2] (setting [6]), the “Nucleic acid encapsulation rate” value was 95.5%. The compound also showed a Particle size in data set [5] (setting [6]) of 165.3 nm.

For the compound `CCCCCCCCOC(=O)CCCC(CCCC(=O)OCCCCCCCC)OC(=O)OCCN(CCOC(=O)OC(CCCC(=O)OCCCCCCCC)CCCC(=O)OCCCCCCCC)CCN(CC)CC` [Example 33, Dioctyl 11-(2-(diethylamino)ethyl)-5,17-bis(4-(octyloxy)-4-oxobutyl)-7,15-dioxo-6,8,14,16-tetraoxa-1 1-azahenicosanedioate], the “Relative amount of EPO protein” value in data set [1] (setting [6]) was 2.70. Further, the “Nucleic acid encapsulation rate” value in data set [2] (setting [6]) turned out to be 88.8%. Further, the Particle size in data set [5] (setting [6]) came out at 132.8 nm.

Regarding `CCCCCCCCCOC(=O)CCCC(CCCC(=O)OCCCCCCCCC)OC(=O)OCCN(CCOC(=O)OC(CCCC(=O)OCCCCCCCCC)CCCC(=O)OCCCCCCCCC)CCN(CC)CC` [Example 34, Dinonyl 11-(2-(diethylamino)ethyl)-5,17-bis(4-(nonyloxy)-4-oxobutyl)-7,15-dioxo-6,8,14,16-tetraoxa-11-azahenicosanedioate], the “Relative amount of EPO protein” value in data set [1] (setting [6]) is 1.20. Besides, the “Nucleic acid encapsulation rate” value in data set [2] (setting [6]) came to 100.0%. In data set [5] (setting [6]), the Particle size is 99.2 nm.

`CCCCCCCOC(=O)CCCC(CCCC(=O)OCCCCCCC)OC(=O)OCCN(CCCN(CC)CC)CCOC(=O)OC(CCCC(=O)OCCCCCCC)CCCC(=O)OCCCCCCC` [Example 38, Diheptyl 11-(3-(diethylamino)propyl)-5,17-bis(4-(heptyloxy)-4-oxobutyl)-7,15-dioxo-6,8,14,16-tetraox a-11-azahenicosanedioate]: the “Relative amount of EPO protein” value in data set [1] (setting [6]) worked out at 2.13. For the same compound, the “Nucleic acid encapsulation rate” value was 100.0% in data set [2] (setting [6]) and 99.7% in data set [3]. Further, the Particle size in data set [4] is listed as 116 nm; in data set [5] (setting [6]) it was 101.4 nm.

Turning to `CCCCCCCOC(=O)CCC(CCC(=O)OCCCCCCC)OC(=O)OCCN(CCOC(=O)OC(CCC(=O)OCCCCCCC)CCC(=O)OCCCCCCC)CCN(CC)CC` [Example 39, Diheptyl 10-(2-(diethylamino)ethyl)-4,16-bis(3-(heptyloxy)-3-oxopropyl)-6,14-dioxo-5,7,13,15-tetraox a-10-azanonadecanedioate], the “Relative amount of EPO protein” value in data set [1] (setting [6]) is 8.03. In addition, the “Nucleic acid encapsulation rate” value in data set [2] (setting [6]) is 93.8%; in data set [3], 90.1%. The Particle size in data set [4] is listed as 141.1 nm; in data set [5] (setting [6]), 147.2 nm.

Regarding `CCCCCCCCOC(=O)CCCC(CCCC(=O)OCCCCCCCC)OC(=O)OCCN(CCOC(=O)OC(CCCC(=O)OCCCCCC)CCCC(=O)OCCCCCC)CCN(CC)CC` [Example 42], the “Relative amount of EPO protein” value in data set [1] (setting [7]) was 4.28. Besides, the “Nucleic acid encapsulation rate” value in data set [2] (setting [7]) was 98.9%. The compound also had a Particle size in data set [5] (setting [7]) of 128.2 nm.

In the case of `CCCCCCSCCOC(=O)CCCC(CCCC(=O)OCCSCCCCCC)OC(=O)OCCN(CCOC(=O)OC(CCCC(=O)OCCSCCCCCC)CCCC(=O)OCCSCCCCCC)CCN(CC)CC` [Example 43, Bis(2-(hexylthio)ethyl) 11-(2-(diethylamino)ethyl)-5,17-bis(4-(2-(hexylthio)ethoxy)-4-oxobutyl)-7,15-dioxo-6,8,14,16-tetraoxa-11-azahenicosanedioate], the “Relative amount of EPO protein” value in data set [1] (setting [7]) amounted to 3.12. The entries for the “Nucleic acid encapsulation rate” value in data set [2] (setting [7]) and in data set [3] were 95.7% and 100.0%, respectively. The Particle size in data set [4] worked out at 144 nm; in data set [5] (setting [7]) it was 155.0 nm.

In the case of `CCN(CC)CCN(CCOC(=O)OC(CCCC(=O)OCCCCCCCCSC)CCCC(=O)OCCCCCCCCSC)CCOC(=O)OC(CCCC(=O)OCCCCCCCCSC)CCCC(=O)OCCCCCCCCSC` [Example 44, Bis(8-(methylthio)octyl) 11-(2-(diethylamino)ethyl)-5,17-bis(4-((8-(methylthio)octyl)oxy)-4-oxobutyl)-7,15-dioxo-6,8,14,16-tetraoxa-11-azahenicosanedioate], the “Relative amount of EPO protein” value in data set [1] (setting [7]) is 1.39. In addition, the “Nucleic acid encapsulation rate” value in data set [2] (setting [7]) amounted to 81.2%; in data set [3] it was 100.0%. Moreover, the values for the Particle size in data set [4] and in data set [5] (setting [7]) were 170.5 nm and 201.9 nm, respectively.
